Results as given in ChEMBL document CHEMBL3351924, “Detailed analysis and follow-up studies of a high-throughput screening for indoleamine 2,3-dioxygenase 1 (IDO1) inhibitors” (Eur J Med Chem, 2014).
pIC50: −log10 of the molar value. Values after ≈ are worked out from the molar mass of the structure shown.

Legend:
[1] = target: T1, Indoleamine 2,3-dioxygenase 1 (Homo sapiens, UniProt P14902); assay: Inhibition of IDO1 (unknown origin) using L-tryptophan substrate incubated for 60 mins in presence of 0.01% Triton-X by HPLC; details: for pIC50: read-out: IC50
T1 sequence (P14902 whole entry): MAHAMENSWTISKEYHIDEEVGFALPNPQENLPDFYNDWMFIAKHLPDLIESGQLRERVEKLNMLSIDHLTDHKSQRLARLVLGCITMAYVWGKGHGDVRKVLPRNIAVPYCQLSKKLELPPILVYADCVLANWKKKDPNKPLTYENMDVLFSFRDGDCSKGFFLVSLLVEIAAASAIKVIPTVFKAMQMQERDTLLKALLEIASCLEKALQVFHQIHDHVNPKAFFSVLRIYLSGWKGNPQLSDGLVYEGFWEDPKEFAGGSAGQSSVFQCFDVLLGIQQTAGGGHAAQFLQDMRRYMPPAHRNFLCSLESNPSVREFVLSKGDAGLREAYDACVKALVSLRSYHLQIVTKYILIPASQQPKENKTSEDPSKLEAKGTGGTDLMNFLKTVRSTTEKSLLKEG

[2] = Solubility of the compound in pH 6.5 phosphate buffer containing 5% DMSO
[3] = target: T1, Indoleamine 2,3-dioxygenase 1; assay: Inhibition of IDO1 (unknown origin) using L-tryptophan substrate incubated for 60 mins by HPLC
[4] = target: Indoleamine 2,3-dioxygenase 1 (Mus musculus, UniProt P28776); assay: Inhibition of mouse IDO1 expressed in mouse P815B cells using L-tryptophan substrate incubated for 18 hrs by HPLC based cellular assay; format: cell-based; details: p815b
Chain of Indoleamine 2,3-dioxygenase 1 (Mus musculus, UniProt P28776) (P28776 whole entry): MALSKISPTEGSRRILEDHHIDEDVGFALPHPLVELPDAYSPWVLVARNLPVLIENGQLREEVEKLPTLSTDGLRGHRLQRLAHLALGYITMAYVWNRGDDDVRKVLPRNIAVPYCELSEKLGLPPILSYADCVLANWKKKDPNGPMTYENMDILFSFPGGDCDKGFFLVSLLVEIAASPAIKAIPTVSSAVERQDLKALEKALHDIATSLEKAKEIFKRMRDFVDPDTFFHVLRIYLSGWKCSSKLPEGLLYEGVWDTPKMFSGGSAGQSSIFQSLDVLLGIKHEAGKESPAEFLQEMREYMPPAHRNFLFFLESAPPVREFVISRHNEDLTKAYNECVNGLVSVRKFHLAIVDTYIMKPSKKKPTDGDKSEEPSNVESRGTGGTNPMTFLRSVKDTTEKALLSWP

[5] = target: Tryptophan 2,3-dioxygenase (Mus musculus, UniProt P48776); assay: Inhibition of mouse TDO expressed in mouse P815B cells using L-tryptophan substrate incubated for 24 hrs by HPLC based cellular assay; format: cell-based; details: p815b
Chain of Tryptophan 2,3-dioxygenase (P48776 whole entry): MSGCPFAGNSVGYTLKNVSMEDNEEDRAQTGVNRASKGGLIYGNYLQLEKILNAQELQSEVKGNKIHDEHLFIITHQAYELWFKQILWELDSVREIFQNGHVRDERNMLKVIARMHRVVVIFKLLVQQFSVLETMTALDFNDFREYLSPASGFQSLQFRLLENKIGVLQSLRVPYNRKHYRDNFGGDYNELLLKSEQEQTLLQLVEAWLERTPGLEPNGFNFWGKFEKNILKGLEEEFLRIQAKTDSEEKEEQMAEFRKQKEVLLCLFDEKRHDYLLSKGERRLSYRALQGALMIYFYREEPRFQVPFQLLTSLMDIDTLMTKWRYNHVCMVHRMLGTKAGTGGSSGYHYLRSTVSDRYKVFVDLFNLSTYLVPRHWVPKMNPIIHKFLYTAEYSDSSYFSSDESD

[6] = Cytotoxicity against mouse P815B cells after 24 hrs by MTS/PMS assay
[7] = target: T1, Indoleamine 2,3-dioxygenase 1; assay: Inhibition of IDO1 (unknown origin) using L-tryptophan substrate incubated for 60 mins in presence of 5 mM GSH by HPLC
[8] = phosphate buffer containing 5% DMSO

Q: Which IC50 [1] does the source give for `Clc1ccc(COCCn2ccnc2)c(Cl)c1` here?
A: Not Active

Q: And the solubility [2, 8]?
A: > 1000 µM

Q: With `Clc1ccc(CCn2ccnc2)c(Cl)c1` as the compound, how does the pIC50 [1] read?
A: 3.09

Q: What about the solubility [2, 8] of the same compound?
A: > 1000 µM

Q: Which results are given for `COC(Cn1ccnc1)c1ccc(Cl)cc1Cl` (configuration not stated)?
A: pIC50 [1]: 3.85; solubility [2, 8]: > 1000 µM

Q: With `Clc1ccc(C(Cn2ccnc2)OCc2cccnc2)c(Cl)c1` (configuration not stated) as the compound, how does the pIC50 [1] read?
A: 4.08

Q: What about the solubility [2, 8] of the same compound?
A: > 1000 µM

Q: Which results are given for `OC(Cn1ccnc1)c1ccccc1Cl` (configuration not stated)?
A: pIC50 [1]: 3.70; solubility [2, 8]: > 1000 µM

Q: With `OC(Cn1ccnc1)c1ccc(Cl)c(Cl)c1` (configuration not stated) as the compound, how does the pIC50 [1] read?
A: 3.08

Q: What about the solubility [2, 8] of the same compound?
A: > 1000 µM

Q: Which results are given for `OC(Cn1ccnc1)c1cccc(Cl)c1` (configuration not stated)?
A: IC50 [1]: Not Active; solubility [2, 8]: > 1000 µM

Q: What does the source list for `OC(Cn1ccnc1)c1c(Cl)cccc1Cl` (configuration not stated)?
A: IC50 [1]: Not Active; solubility [2, 8]: > 1000 µM

Q: With `Oc1ccccc1C(O)Cn1ccnc1` (configuration not stated) as the compound, how does the IC50 [1] read?
A: Not Active

Q: And the solubility [2, 8]?
A: > 1000 µM

Q: Which IC50 [1] does the source give for `OC(Cc1c[nH]nn1)c1ccc(Cl)cc1Cl` (configuration not stated) here?
A: Not Active

Q: What about the solubility [2, 8] of the same compound?
A: > 1000 µM

Q: What does the source list for `Clc1ccc(Cn2ccnc2)c(Cl)c1`?
A: pIC50 [1]: 3.51; solubility [2, 8]: > 1000 µM

Q: Which IC50 [1] does the source give for `Clc1ccc(-n2ccnc2)c(Cl)c1` here?
A: Not Active

Q: What about the solubility [2, 8] of the same compound?
A: > 1000 µM

Q: Which IC50 [1] does the source give for `O=C(Cn1ccnc1)c1ccc(Cl)cc1Cl` here?
A: Not Active

Q: And the solubility [2, 8]?
A: > 1000 µM

Q: Which results are given for `c1ccc(CCn2ccnc2)cc1`?
A: IC50 [1]: Not Active; solubility [2, 8]: > 1000 µM

Q: Which results are given for `O=c1ccsn1-c1cccc(Cl)c1F`?
A: pIC50 [1]: 5.32; pIC50 ([3]; read-out: IC50): 4.96; IC50 [4]: Not Active; IC50 [5]: Not Active; CC50 at 24 h ([6]; P815B cells): 10 µM; pIC50 [7]: 3.70; solubility [2, 8]: 1000 µM (≈ 230 µg/mL)

Q: With `CCN(CC)C(=S)SSC(=S)N(CC)CC` as the compound, how does the IC50 [3] read?
A: Not Active

Q: What about the solubility [2, 8] of the same compound?
A: 100 µM (≈ 29.7 µg/mL)

Q: For `c1ccc(Cn2ccnc2)cc1` [BENZYLIMIDAZOLE], which IC50 [1] is on record?
A: Not Active

Q: What about the solubility [2, 8] of the same compound?
A: > 1000 µM

Q: With `c1ccc(-c2ccc(C(c3ccccc3)n3ccnc3)cc2)cc1` (configuration not stated) [BIFONAZOLE] as the compound, how does the pIC50 ([3]; read-out: IC50) read?
A: 4.64

Q: And the IC50 [4]?
A: Not Active

Q: And the IC50 [5]?
A: Not Active

Q: And the CC50 at 24 h ([6]; P815B cells)?
A: 10 µM

Q: And the solubility [2, 8]?
A: 25 µM (≈ 7.76 µg/mL)

Q: Which IC50 [3] does the source give for `Clc1ccc(CCC(Cn2ccnc2)Sc2c(Cl)cccc2Cl)cc1` (configuration not stated) [BUTOCONAZOLE] here?
A: Not Active

Q: And the solubility [2, 8]?
A: 10 µM (≈ 4.12 µg/mL)

Q: With `Cc1cc(C2CCCCC2)n(O)c(=O)c1` [CICLOPIROX] as the compound, how does the IC50 [3] read?
A: Not Active

Q: What about the solubility ([2]; buffer) of the same compound?
A: 1000 µM (≈ 207 µg/mL)

Q: With `Clc1ccc(COC(Cn2ccnc2)c2ccc(Cl)cc2Cl)cc1` (configuration not stated) [ECONAZOLE] as the compound, how does the pIC50 [3] read?
A: 5.09

Q: And the IC50 [4]?
A: Not Active

Q: And the IC50 [5]?
A: Not Active

Q: What about the CC50 at 24 h ([6]; P815B cells) of the same compound?
A: 10 µM

Q: And the solubility [2, 8]?
A: 10 µM (≈ 3.82 µg/mL)

Q: With `C=CCOC(Cn1ccnc1)c1ccc(Cl)cc1Cl` (configuration not stated) [ENILCONAZOLE] as the compound, how does the pIC50 ([3]; read-out: IC50) read?
A: 4.64

Q: And the IC50 [4]?
A: Not Active

Q: What about the IC50 [5] of the same compound?
A: Not Active

Q: And the CC50 at 24 h ([6]; P815B cells)?
A: > 25 µM

Q: What about the solubility [2, 8] of the same compound?
A: 10 µM (≈ 2.97 µg/mL)

Q: With `Clc1ccc(C(Cn2ccnc2)OCc2c(Cl)cccc2Cl)c(Cl)c1` (configuration not stated) [ISOCONAZOLE] as the compound, how does the pIC50 ([3]; read-out: IC50) read?
A: 4.64

Q: And the IC50 [4]?
A: Not Active

Q: What about the IC50 [5] of the same compound?
A: Not Active

Q: What about the CC50 at 24 h ([6]; P815B cells) of the same compound?
A: 10 µM

Q: And the solubility [2, 8]?
A: 50 µM (≈ 20.8 µg/mL)

Q: Which results are given for `CC(=O)N1CCN(c2ccc(OCC3COC(Cn4ccnc4)(c4ccc(Cl)cc4Cl)O3)cc2)CC1` (configuration not stated) [KETOCONAZOLE]?
A: pIC50 [1]: 4.60; pIC50 ([3]; read-out: IC50): 4.49; IC50 [4]: Not Active; IC50 [5]: Not Active; CC50 at 24 h ([6]; P815B cells): 25 µM; solubility [2, 8]: 100 µM (≈ 53.1 µg/mL)

Q: With `CCOC(=O)C1=C(C)NC(C)=C(C(=O)OCC)C1c1ccccc1/C=C/C(=O)OC(C)(C)C` [LACIDIPINE] as the compound, how does the solubility [2, 8] read?
A: 1 µM (≈ 0.456 µg/mL)

Q: Which solubility [2, 8] does the source give for `COc1cccc(N(C)C(=S)Oc2ccc3c(c2)CCCC3)n1` [LIRANAFTATE] here?
A: 12.5 µM (≈ 4.11 µg/mL)

Q: Which IC50 [3] does the source give for `Sc1ncnc2nc[nH]c12` [MERCAPTOPURINE ANHYDROUS] here?
A: Not Active

Q: And the solubility [2, 8]?
A: 1000 µM (≈ 152 µg/mL)

Q: What does the source list for `Clc1ccc(COC(Cn2ccnc2)c2ccc(Cl)cc2Cl)c(Cl)c1` (configuration not stated) [MICONAZOLE]?
A: pIC50 [1]: 5.42; pIC50 ([3]; read-out: IC50): 5.17; IC50 [4]: Not Active; IC50 [5]: Not Active; CC50 at 24 h ([6]; p815b): 10 µM; solubility [2, 8]: 10 µM (≈ 4.16 µg/mL)

Q: With `COC(=O)C1=C(C)NC(C)=C(C(=O)OC)C1c1ccccc1[N+](=O)[O-]` [NIFEDIPINE] as the compound, how does the IC50 [3] read?
A: Not Active

Q: For `COC(=O)C1=C(C)NC(C)=C(C(=O)OCC(C)C)C1c1ccccc1[N+](=O)[O-]` (configuration not stated) [NISOLDIPINE], which IC50 [3] is on record?
A: Not Active

Q: What about the solubility [2, 8] of the same compound?
A: 50 µM (≈ 19.4 µg/mL)

Q: With `Clc1ccc(CO/N=C(\Cn2ccnc2)c2ccc(Cl)cc2Cl)c(Cl)c1` [OXICONAZOLE] as the compound, how does the pIC50 ([3]; read-out: IC50) read?
A: 4.55

Q: And the IC50 [4]?
A: Not Active

Q: What about the IC50 [5] of the same compound?
A: Not Active

Q: And the CC50 at 24 h ([6]; p815b)?
A: 10 µM

Q: What about the solubility [2, 8] of the same compound?
A: 20 µM (≈ 8.58 µg/mL)

Q: Which results are given for `NNCCc1ccccc1` [PHENELZINE]?
A: pIC50 ([3]; read-out: IC50): 4.85; IC50 [4]: Not Active; IC50 [5]: Not Active; CC50 at 24 h ([6]; p815b): > 25 µM; solubility ([2]; buffer): 1000 µM (≈ 136 µg/mL)

Q: Which solubility [2, 8] does the source give for `CC(C)(N)Cc1ccccc1` [PHENTERMINE] here?
A: 1000 µM (≈ 149 µg/mL)

Q: What does the source list for `COCCCOc1ccnc(C[S+]([O-])c2nc3ccccc3[nH]2)c1C` (configuration not stated) [RABEPRAZOLE]?
A: IC50 [3]: Not Active; solubility [2, 8]: 1000 µM (≈ 359 µg/mL)

Q: With `O=C(c1ccc(OCCN2CCCCC2)cc1)c1c(-c2ccc(O)cc2)sc2cc(O)ccc12` [RALOXIFENE] as the compound, how does the solubility [2, 8] read?
A: 50 µM (≈ 23.7 µg/mL)

Q: With `Clc1ccc(C(Cn2ccnc2)OCc2csc3c(Cl)cccc23)c(Cl)c1` (configuration not stated) [SERTACONAZOLE] as the compound, how does the pIC50 ([3]; read-out: IC50) read?
A: 5.08

Q: And the IC50 [4]?
A: Not Active

Q: And the IC50 [5]?
A: Not Active

Q: What about the CC50 at 24 h ([6]; P815B cells) of the same compound?
A: 10 µM

Q: And the solubility [2, 8]?
A: 10 µM (≈ 4.38 µg/mL)

Q: Which IC50 [4] does the source give for `Clc1ccc(CSC(Cn2ccnc2)c2ccc(Cl)cc2Cl)cc1` (configuration not stated) [SULCONAZOLE] here?
A: Not Active

Q: And the IC50 [5]?
A: Not Active

Q: And the CC50 at 24 h ([6]; p815b)?
A: 10 µM

Q: What about the solubility [2, 8] of the same compound?
A: 10 µM (≈ 3.98 µg/mL)

Q: What does the source list for `Clc1ccc(C(Cn2ccnc2)OCc2ccsc2Cl)c(Cl)c1` (configuration not stated) [TIOCONAZOLE]?
A: IC50 [3]: Not Active; solubility ([2]; buffer): 10 µM (≈ 3.88 µg/mL)
